# Laboratory results: US20150182629A1, “STABLE COMPOSITIONS OF FESOTERODINE” (HETERO RESEARCH FOUNDATION, priority 2012, published 2015)
# Assay: Stability evaluation of drug-excipient blend (impurities initially and after storage)
# Type: physicochemical
# Protocol: According to the present invention stability of drug-excipient blend was evaluated based on percentage w/w of 2-((R)-3-(diisopropylamino)-1-phenylpropyl)-4-(hydroxymethyl)phenol impurity (H-FTFRC-01) and total impurities present in drug-excipient blend, initially and after storage for one month at 40° C. and 75% relative humidity.
structure (smiles),measurement,setting,value
"CC(C)C(=O)Oc1ccc(CO)cc1[C@H](CCN(C(C)C)C(C)C)c1ccccc1.O=C(O)/C=C/C(=O)O [Fesoterodine fumarate, isobutyric acid 2-((R)-3-diisopropylammonium-1phenylpropyl)-4-(hydroxymethyl) phenyl ester hydrogen fumarate]",H-FTFRC-01 impurity,"40° C./75% RH, 1 month",0.524 % w/w
same,Total Impurities,"40° C./75% RH, 1 month",1.245 % w/w
same,H-FTFRC-01 impurity,Initial,0.284 % w/w
same,Total Impurities,Initial,0.800 % w/w
